Results from patent publication US6878690B2, “Compounds and methods” (PharmAxis Pty Ltd., priority 2000, dated 2005).
Values joined by “and” are separate entries in the source; they are usually repeats but may differ in a detail not shown here. Equal values may be shown once.

Legend:
[1] = tested on: lymphocyte migration into the spleen; assay: Inhibition of lymphocyte migration into lymphoid tissue (spleen); type: in vivo, Balb/C mice; settings: intravenous dose of 5 mg of test compound together with labelled lymphocytes; spleens removed 1.5 hours after injection
From the text: In the present example, spleens from specific pathogen free 6-8 week old female Balb/C mice [19-21 g] were used to prepare a single cell suspension in the usual manner in mixed lymphocyte culture medium (DMEM plus glucose, folic acid, L-asparagine, sodium bicarbonate, L-glutamine, sodium pyruvate, HEPES, 2-mercaptoethanol, penicillin, streptomycin, neomycin, and 2% fetal calf serum) by pushing through a stainless steel screen. Following cell collection the red blood cells were lysed in the usual manner by treating with a solution of ammonium chloride, EDTA and sodium hydrogen carbonate (pH 7.3) and the preparation strained (Falcon 2350 cell strainer). All cell preparative steps were performed on ice.
In order to deplete the preparation of B lymphocytes, the cells were suspended in purified rat anti-mouse CD45/B220 antibody (RA3-6B2 clone; PharMingen, USA) at a concentration of 4×10^7 cells per ml and incubated on ice for 20 minutes. An equal volume of mixed lymphocyte culture medium (as above) was then added and the cells centrifuged (200× g) and resuspended at a concentration of 1×10^7 cells per ml in BioMag goat ant-rat IgG (H&L) linked to magnetic beads (Bio Mag; Perseptive Diagnostics, Polysciences Inc, USA). Following a 20 minute incubation on ice, with agitation every 5 minutes, the goat anti-rat IgG/antibody complex was removed using magnetic separation (Dynal MPC-6, Dynal, USA). The magnetic separation procedure was repeated 4 times giving a cell population containing approximately 80-90% T lymphocytes (determined by FACS analysis).
The cells were then washed in Hanks media, resuspended in 5 ml of Hanks, and radio-labelled for 30 minutes at 37° C. with sodium chromate solution (^51Cr, 34 MBq/ml, Amersham, UK). The labelled cells were washed in PBS centrifuged (200×g) and a portion were resuspended at a concentration of 3×10^7 cells/ml in either PBS (negative control), or PBS containing the test compound (25 mg/ml), and stored on ice. Balb/C mice in the negative control and treatment groups received a volume of 0.2 ml of the labelled cell preparation by a lateral tail vein injection. Negative control mice received 0.2 ml of PBS together with 6×10^6 51chromium-labelled lymphocytes, and mice from the treated groups received an intravenous dose of 5 mg of the test compound together with 6 million ^51chromium-labelled lymphocytes. […]
Spleens from the recipient mice were removed 1.5 hours after injection and the cell-associated radioactivity (CPM) determined using a gamma counter (Packard Auto-Gamma 5650. IL, USA). Results (inhibition of lymphocyte migration into the spleen) were expressed as a percentage reduction in the CPM of the spleens from treated animals compared with negative controls.

[2] = tested on: DTH response to 2,4-dinitrofluorobenzene (DNFB); assay: Delayed-type hypersensitivity (DTH) response to DNFB, ear swelling; type: in vivo, Balb/C mice
From the text: In the present Example, a murine model of Type IV hypersensitivity or delayed-type hypersensitivity (DTH) response to cutaneous contact with the chemical hapten 2,4-dinitrofluorobenzene (DNFB) (Aldrich Chemical Company Inc, USA) was used as a model to measure the anti-inflammatory effects of compounds of the present invention. Specific pathogen-free 8-12 week old female Balb/C mice, weighing 19-21 g, were sensitised in a similar manner to that described by Klimuk et al., (Klimuk et al., 1999) by applying a solution of DNFB (0.5% in acetone:olive oil (4:1, v/v); 30 microliters,) onto a 2 cm^2 shaved area of the abdomen. After 7 days, the animals were anesthetised with diethyl ether and 8 microliters of DNFB (0.35% in acetone:olive oil (4:1, v/v) was applied to the dorsal and ventral surfaces of the right pinna. Prior to regaining consciousness, the mice were implanted intraperitoneally with Alzet 2001 mini-osmotic pumps (Alza Corp., Palo Alto Calif., USA) containing phosphoric acid mono-[6-(3-hexyloxy-propyl)-3,4,5-trihydroxy-tetrahydro-pyran-2-ylmethyl] ester, sodium salt in normal saline. The dose delivered was 50 mg/kg/day. Control animals for this group received saline delivered in identical mini-osmotic pumps. A second experimental group of mice received phosphoric acid mono-[3-(3,4,5-trihydroxy-6-phosphonooxymethyl-tetrahydro-pyran-2-yl)-propyl] ester disodium salt via one-week delivery Alzet 2001 mini-osmotic pumps implanted intraperitoneally. This compound was delivered at a dose of 40 mg/kg/day. Control animals for this group received saline delivered in identical mini-osmotic pumps. In a third experiment a separate group of mice received (3,4,5-trihydroxy-6-phosphonooxymethyl-tetrahydro-pyran-2-yl)-acetic acid disodium salt via one-week delivery Alzet 2001 mini-osmotic pumps that were placed intraperitoneally. This compound was delivered at 45 mg/kg/day. The control group for this experiment received identical mini-osmotic pumps containing normal saline. In a fourth experiment a group of mice received 3-phenyl-2-[2-(3,4,5-trihydroxy-6-phosphonooxymethyl-tetrahydro-pyran-2-yl)-acetylamino]-propionic acid monosodium salt via one-week delivery Alzet 2001 mini-osmotic pumps that were placed subcutaneously. This compound was delivered at 62 mg/kg/day. The control group for this experiment received identical mini-osmotic pumps containing normal saline. In a fifth experiment a group of mice received hexanoic acid 3-(3,4,5-trihydroxy-6-phosphonooxymethyl-tetrahydro-pyran-2-yl)-propyl ester sodium salt via one-week delivery Alzet 2001 mini-osmotic pumps that were placed subcutaneously. This compound was delivered at 40 mg/kg/day. The control group for this experiment received identical mini-osmotic pumps containing normal saline.
Twenty-four hours after challenge the mice were lightly anesthetised with diethyl ether and the thickness of the left and right pinnae measured (in millimeters) using a dial gauge micrometer (Interapid, Switzerland). Care was taken to measure only the outer two thirds of the ear. The increase in ear thickness initiated by the DTH response was determined by subtracting the measurement of the left ear (untreated) from the right ear (challenged).
In Table 4, values in the columns labeled Left and Right are measurements of ear thickness in millimeters of the control and challenged ears respectively.

[3] = tested on: T lymphocyte migration into the right ear; assay: Inhibition of in vivo migration of T lymphocytes into extra lymphatic tissues (picryl chloride treated ear); set-up: species or system Balb/C mice; settings: 5 mg per mouse, IV, 9 to 10 hours after cell transfer
From the text: T lymphocytes are known to migrate from the blood stream into tissues, including tissues that contain an antigen to which they can respond. An in vivo example of T lymphocyte migration involves the intravenous injection of radioisotopically- or fluorescently-labelled antigen-specific T cells into a mammal that has the antigen present in one or more of its tissues. An assessment of the degree to which the injected T cells have accumulated in the antigen-containing tissue can be made either by measuring the amount of radioactivity present in the tissue or analysing the tissue histologically to determine the number of infiltrated fluorescently labelled cells. […] For example, in the case of a CNS antigen the cells will localise in the brain and spinal cord and the number of labelled cells that have accumulated there can then be determined. […] Within a short time of cell transfer sensitised T cells begin to accumulate in the haptenised tissue and eight to twenty-four hours later the tissue can be removed and the cell accumulation assessed. In the case of fluorescently-labelled cells their accumulation is assessed histologically and in the case of the radio-labelled cells accumulation is assessed by counting radio active decay in a suitable device. […]

Question: What does the source list for `O=C([O-])CC1OC(COP(=O)(O)O)C(O)C(O)C1O.O=C([O-])CC1OC(COP(=O)(O)O)C(O)C(O)C1O.[Na+].[Na+]` (stereo not shown) [(3,4,5-trihydroxy-6-phosphonooxymethyl-tetrahydro-pyran-2-yl)-acetic acid disodium salt]?
Answer: Percent Inhibition (relative to negative controls) of lymphocyte migration into spleens [1]: 85.5%; Mean percentage decrease in ear swelling in treated animals ([2]; 45 mg/kg/day intraperitoneally, versus saline controls): Mean percentage decrease in ear swelling intreated animals: 29.4%; Mean Difference, Treated ([2]; group mean, 45 mg/kg/day intraperitoneally, saline control mean 0.068): 0.048 millimeters; Difference (right minus left ear), Treated ([2]; individual mice, 45 mg/kg/day, mini-osmotic pump intraperitoneally, 24 hours after challenge, disodium salt): 0.06 millimeters (2×) and 0.05 millimeters (3×) and 0.03 millimeters (3×) and 0.07 millimeters; Right ear thickness, Treated ([2]; individual mice, challenged ear, 45 mg/kg/day, mini-osmotic pump intraperitoneally, 24 hours after challenge, disodium salt): 0.27 millimeters (3×) and 0.24 millimeters (2×) and 0.29 millimeters and 0.26 millimeters (3×); Left ear thickness, Treated ([2]; individual mice, control (unchallenged) ear, 45 mg/kg/day, mini-osmotic pump intraperitoneally, 24 hours after challenge, disodium salt): 0.21 millimeters (6×) and 0.22 millimeters (2×) and 0.23 millimeters

Question: For “Phenylethyl (3,4,5-trihydroxy-6-phosphonooxymethyl-tetrahydro-pyran-2-yl)-acetic acid ester”, which “Percent inhibition of T cell migration” value [3] is on record?
Answer: 26.1%
